Measured values published in patent US20240307362A1 (priority 2019, published 2024).
pIC50: −log10 of the molar value. Like-named read-outs stand apart in the source and are kept apart here.

Experiments:
Format in all cases: cell-based
Ba/F3-EGFR-N771_P772insH = assay: Ba/F3 cell survival assay, EGFR N771_P772insH; details: 48 h, read-out: BA/F3 (EGFR N771— P772insH) IC50
Description: (§1) 293T cells from ATCC were transfected with pBABEpuro expression constructs for mutant EGFR (V769_D770insASV, D770_N771insNPG, N771_P772insH, H773_V774insNPH, E746_A750del, L858R, D770_N771 insSVD C797S, E746_A750del C797S, L858R C797S, L861Q) or mutant ERBB2 (A775_G776insYVMA) and pCL-Eco packaging vector using Fugene-6 transfection reagent from Promega. Plates were incubated at 37° C. for 48 h. Retrovirus was harvested by filtering the media supernatant through a 0.45 μm filter.
(§2) Ba/F3 cells purchased from DSMZ were grown in RPMI+10% FBS+10 ng/mL IL-3 and infected with filtered retroviral supernatant at a 1:2 dilution. Polybrene was added to a concentration of 8 μg/mL, plates were spun for 90 min, and incubated overnight at 37° C. 2 μg/mL puromycin was added to the infected cells 24 h after infection and cells were continually grown in the presence of puromycin and 10 ng/mL IL-3. Following stably expressing Ba/F3 cell lines were generated: Ba/F3-EGFR-V769_D770insASV, Ba/F3-EGFR-D770_N771insNPG, Ba/F3-EGFR-N771_P772insH, Ba/F3-EG, Ba/F3-EGFR-H773_V774insNPH, Ba/F3-EGFR-E746_A750del, Ba/F3-EGFR-L858R, Ba/F3-EGFR-D770_N771 insSVD C797S, Ba/F3-EGFR-E746_A750del C797S, Ba/F3-EGFR-L858R C797S, Ba/F3-EGFR L861Q and Ba/F3-ERBB2-A775_G776insYVMA (Ba/F3—vector-control).
(§3) For cell survival assays, Ba/F3 cells were grown to a density of 1-2 million cells per mL, spun down and resuspended in media without IL-3, and replated at a concentration 200,000-500,000 cells per mL. The cells ectopically expressing WT EGFR plated with 10 ng/mL Millipore Culture grade EGF and Ba/F3 cells containing mutant EGFR or Mutant ERBB2 were cultivated without EGF. The cells ectopically expressing pBABEpuro empty vector were plated with 10 ng/mL IL-3.
(§4) 2 days later, cells were plated in 50 μL in a 384 well plate at a concentration of 4000 cells per well for cells assayed in the absence of IL-3 and 2000 cells per well for cells assayed in the presence of IL-3. 100 nL of compound was added to each well using a 100 nL pin head, and plates were incubated at 37° C. for 48 h.
(§5) Cell viability was measured by adding 20 μL of Cell Titer-Glo Luminescent Cell Viability Reagent diluted 1:3 in PBS. Plates were sealed with Perkin Elmer Top-Seal, inverted several times to mix, and immediately centrifuged at 1000 rpm for 2 min. Plates were incubated in low light conditions for 8-10 min and luminescence was measured.

Ba/F3-EGFR-WT = assay: Ba/F3 cell survival assay, WT EGFR
Ba/F3-EGFR-L858R C797S = assay: Ba/F3 cell survival assay, EGFR L858R C797S; details: 48 h, read-out: BA/F3 (EGFR L858R C797S) IC50
Description: as §1, §2, §3, §4, §5

[1] = system: Ba/F3-EGFR-E746_A750del C797S; assay: Ba/F3 cell survival assay, EGFR E746_A750del C797S; details: 48 h, read-out: BA/F3 (EGFR E746_A750del C797S) IC50
Description: as §1, §2, §3, §4, §5

[2] = system: Ba/F3-EGFR-V769_D770insASV; assay: Ba/F3 cell survival assay, EGFR V769_D770insASV; details: 48 h, read-out: BA/F3 (ASV) IC50
Description: as §1, §2, §3, §4, §5

[3] = system: Ba/F3-ERBB2-A775_G776insYVMA; assay: Ba/F3 cell survival assay, ERBB2 A775_G776insYVMA; details: Mus musculus, BaF3, 48 h, read-out: BA/F3 (ERBB2 A775_G776 insYVMA) IC50
Description: as §1, §2, §3, §4, §5

Ba/F3-EGFR-insSVD = assay: Ba/F3 cell survival assay, EGFR-insSVD
Procedure, shortened: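 Ba/F3 cells stably expressing WT EGFR or EGFR-insSVD via retrovirus, grown without IL-3 on 10 ng/mL EGF, plated at 4000 cells/well. Compound exposure 48 h at 37 °C; viability read by CellTiter-Glo luminescence.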

Ba/F3-EGFR-E746_A750del = assay: Ba/F3 cell survival assay, EGFR E746_A750del; details: 48 h, read-out: BA/F3 (EGFR E746_A750del) IC50
Description: as §1, §2, §3, §4, §5

Ba/F3-EGFR-L858R = assay: Ba/F3 cell survival assay, EGFR L858R; details: 48 h, read-out: BA/F3 (EGFR L858R) IC50
Description: as §1, §2, §3, §4, §5

[4] = system: Ba/F3-EGFR-D770_N771 insSVD C797S; assay: Ba/F3 cell survival assay, EGFR D770_N771insSVD C797S; details: Ba/F3 EGFR-D770-N771ins_SVD, 48 h, read-out: BA/F3 (EGFR 0770_N771 insSVD C797S) IC50
Description: as §1, §2, §3, §4, §5

[5] = read-out: BA/F3 (wild type) IC50, cell viability, Cell Titer-Glo, 48 h, with 10 ng/mL EGF, without IL-3
[6] = read-out: BA/F3 (insSVD) IC50, cell viability, Cell Titer-Glo, 48 h, with 10 ng/mL EGF, without IL-3

Row | SMILES | pIC50 (Ba/F3-EGFR-N771_P772insH) | pIC50 (Ba/F3-EGFR-WT; [5]) | pIC50 (Ba/F3-EGFR-L858R C797S) | pIC50 [1] | pIC50 [2] | pIC50 [3] | pIC50 (Ba/F3-EGFR-insSVD; [6]) | pIC50 (Ba/F3-EGFR-E746_A750del) | pIC50 (Ba/F3-EGFR-L858R) | pIC50 [4] | pIC50 (Ba/F3-EGFR-WT; Mus musculus, BaF3, 48 h, read-out: BA/F3 (wild type) IC50, cell viability, Cell Titer-Glo, 48 h, with 10 ng/mL EGF, without IL-3) | pIC50 (Ba/F3-EGFR-insSVD; Mus musculus, BaF3, 48 h, read-out: BA/F3 (insSVD) IC50, cell viability, Cell Titer-Glo, 48 h, with 10 ng/mL EGF, without IL-3)
1 | COc1c(Cl)cccc1Nc1c(-c2ccncc2OCCC2CCO2)[nH]c2c1C(=O)NCC2 (single isomer, unassigned; (-)) [Example 26, (−)-3-(3-chloro-2-methoxyanilino)-2-{3-[2-(oxetan-2-yl)ethoxy]pyridin-4-yl}-1,5,6,7-tetrahydro-4H-pyrrolo[3,2-c]pyridin-4-one] | 8.43 | 6.69 | 9.00 | 9.57 | 8.03 | 8.08 | 8.14 | 9.57 | 9.09 | 7.86 | – | –
2 | COc1c(Cl)cccc1Nc1c(-c2ccncc2OCC2OCC2(C)C)[nH]c2c1C(=O)NCC2 (single isomer, unassigned; (+)) [Example 50, (+)-3-(3-chloro-2-methoxyanilino)-2-{3-[(3,3-dimethyloxetan-2-yl)methoxy]pyridin-4-yl}-1,5,6,7-tetrahydro-4H-pyrrolo[3,2-c]pyridin-4-one] | 8.12 | 6.46 | 8.53 | 9.28 | 7.79 | 7.91 | 8.06 | 9.28 | 8.79 | 7.45 | – | –
3 | COc1c(Cl)cccc1Nc1c(-c2ccncc2OCC2(C)CCO2)[nH]c2c1C(=O)NCC2 (single isomer, unassigned; (+)) [Example 48, (+)-3-(3-chloro-2-methoxyanilino)-2-{3-[(2-methyloxetan-2-yl)methoxy]pyridin-4-yl}-1,5,6,7-tetrahydro-4H-pyrrolo[3,2-c]pyridin-4-one] | 8.29 | 6.46 | 8.89 | 9.47 | 7.94 | 7.89 | 8.02 | 9.47 | 8.89 | 7.78 | – | –
4 | COc1c(Cl)cccc1Nc1c(-c2ccncc2OC[C@@H]2CCO2)[nH]c2c1C(=O)NCC2 [Example 2, 3-(3-chlor-2-methoxyanilino)-2-{3-[(2S)-oxetan-2-ylmethoxy]pyridin-4-yl}-1,5,6,7-tetrahydro-4H-pyrrolo[3,2-c]pyridin-4-on] | 8.25 | – | 8.82 | 9.48 | 8.01 | 7.94 | – | 9.48 | 8.92 | 7.76 | 6.55 | 7.99
